The text below walks through data of patent US20250163066A1, “PROTACs of MALT1” (TEGID THERAPEUTICS, INC., priority 2022, published 2025).

One may read the EC50 as the concentration at which the effect is half-maximal.

For this test, the target named is MALT1 (Homo sapiens (Human), UniProt Q9UDY8). Kind of test: MALT1 enzymatic activity inhibition (fluorescence, Ac-LRSR-AMC substrate). In kind it is biochemical. As to conditions: recombinant MALT1 1.5 ng/μl, Ac-LRSR-AMC 1 μM. In a few lines: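 Recombinant human MALT1 (1.5 ng/μl final) preincubated 10 min at rt with compounds in 50 mM HEPES pH 7.2-7.4, 100 mM NaCl, 900 mM sodium citrate, 10 mM DTT; 1 μM Ac-LRSR-AMC then added. AMC fluorescence read at start and after 30 min 37 °C plus 30 min rt; difference gives signal, % inhibition fitted to IC50.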
Chain of MALT1 (Q9UDY8 whole entry): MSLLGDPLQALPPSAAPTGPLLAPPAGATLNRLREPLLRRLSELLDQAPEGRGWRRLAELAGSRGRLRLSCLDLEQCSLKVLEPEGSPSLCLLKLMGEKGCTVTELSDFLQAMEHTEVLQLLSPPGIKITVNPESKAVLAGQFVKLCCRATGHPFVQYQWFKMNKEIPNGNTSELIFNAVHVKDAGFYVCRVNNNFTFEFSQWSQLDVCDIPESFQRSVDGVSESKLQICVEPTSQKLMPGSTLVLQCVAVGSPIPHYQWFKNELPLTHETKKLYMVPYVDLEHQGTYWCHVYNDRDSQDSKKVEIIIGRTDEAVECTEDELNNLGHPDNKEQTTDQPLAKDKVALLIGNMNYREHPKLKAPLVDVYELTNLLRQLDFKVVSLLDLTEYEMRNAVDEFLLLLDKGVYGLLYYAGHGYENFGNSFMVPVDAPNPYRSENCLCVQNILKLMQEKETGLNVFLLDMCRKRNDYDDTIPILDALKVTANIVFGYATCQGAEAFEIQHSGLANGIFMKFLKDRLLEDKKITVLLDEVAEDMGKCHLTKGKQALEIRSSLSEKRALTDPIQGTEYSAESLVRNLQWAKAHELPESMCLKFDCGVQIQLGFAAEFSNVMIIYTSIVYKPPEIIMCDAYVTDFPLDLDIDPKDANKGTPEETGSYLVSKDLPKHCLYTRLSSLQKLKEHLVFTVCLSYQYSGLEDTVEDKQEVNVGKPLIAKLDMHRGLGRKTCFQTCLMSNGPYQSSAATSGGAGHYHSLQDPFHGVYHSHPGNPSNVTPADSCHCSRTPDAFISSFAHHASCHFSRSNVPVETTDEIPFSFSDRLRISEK
As for `Cc1cc(NC(=O)Nc2cnc3ccnn3c2C2CCC2)cnc1-c1noc(CCCCCC(=O)N2CCN(c3ccc4c(c3)CN(C3CCC(=O)NC3=O)C4=O)CC2)n1` (stereo not shown) [Compound 114, 1-(7-cyclobutylpyrazolo[1,5-a]pyrimidin-6-yl)-3-[6-[5-[6-[4-[2-(2,6-dioxo-3-piperidyl)-1-oxo-isoindolin-5-yl]piperazin-1-yl]-6-oxo-hexyl]-1,2,4-oxadiazol-3-yl]-5-methyl-3-pyridyl]urea], the concentration giving a half-maximal response (EC50) is not above 0.2 µM.

In the case of `Cc1cc(NC(=O)Nc2cnc3ccnn3c2C2CCC2)cnc1-c1noc(CCCCCCN2CCN(c3ccc4c(c3)CN(C3CCC(=O)NC3=O)C4=O)CC2)n1` (stereo not shown) [Compound 115, 1-(7-cyclobutylpyrazolo[1,5-a]pyrimidin-6-yl)-3-[6-[5-[6-[4-[2-(2,6-dioxo-3-piperidyl)-1-oxo-isoindolin-5-yl]piperazin-1-yl]hexyl]-1,2,4-oxadiazol-3-yl]-5-methyl-3-pyridyl]urea], the EC50 is not above 0.2 µM.

Turning to `Cc1cc(NC(=O)Nc2cnc3ccnn3c2C2CCCCC2)cnc1-c1noc(CCCCC(=O)Nc2ccc3c(c2)CN(C2CCC(=O)NC2=O)C3=O)n1` (stereo not shown) [Compound 125, 5-[3-[5-[(7-cyclohexylpyrazolo[1,5-a]pyrimidin-6-yl)carbamoylamino]-3-methyl-2-pyridyl]-1,2,4-oxadiazol-5-yl]-N-[2-(2,6-dioxo-3-piperidyl)-1-oxo-isoindolin-5-yl]pentanamide], the half-maximal effective concentration (EC50) is 0.5 to 1 µM.

Consider `Cc1cc(NC(=O)Nc2cnc3ccnn3c2C2CCCCC2)cnc1-c1noc(CCCC(=O)N2CCN(c3ccc4c(c3)CN(C3CCC(=O)NC3=O)C4=O)CC2)n1` (stereo not shown) [Compound 126, 1-(7-cyclohexylpyrazolo[1,5-a]pyrimidin-6-yl)-3-[6-[5-[4-[4-[2-(2,6-dioxo-3-piperidyl)-1-oxo-isoindolin-5-yl]piperazin-1-yl]-4-oxo-butyl]-1,2,4-oxadiazol-3-yl]-5-methyl-3-pyridyl]urea], for which the concentration for a half-maximal effect (EC50) is 0.5 to 1 µM.

Take `Cc1cc(NC(=O)Nc2cnc3ccnn3c2C(C)(C)C)cnc1-c1noc(CCCCC(=O)N2CCN(c3ccc4c(c3)CN(C3CCC(=O)NC3=O)C4=O)CC2)n1` (stereo not shown) [Compound 127, 1-(7-tert-butylpyrazolo[1,5-a]pyrimidin-6-yl)-3-[6-[5-[5-[4-[2-(2,6-dioxo-3-piperidyl)-1-oxo-isoindolin-5-yl]piperazin-1-yl]-5-oxo-pentyl]-1,2,4-oxadiazol-3-yl]-5-methyl-3-pyridyl]urea]: the EC50 was in the range of 1 to 5 µM.

As for `O=C1CCC(N2Cc3cc(N4CCN(C(=O)CCCCCc5nnc(-c6ccc(NC(=O)Nc7cnc8ccnn8c7C7CCCC7)cn6)s5)CC4)ccc3C2=O)C(=O)N1` (stereo not shown) [Compound 128, 1-(7-cyclopentylpyrazolo[1,5-a]pyrimidin-6-yl)-3-[6-[5-[6-[4-[2-(2,6-dioxo-3-piperidyl)-1-oxo-isoindolin-5-yl]piperazin-1-yl]-6-oxo-hexyl]-1,3,4-thiadiazol-2-yl]-3-pyridyl]urea], the concentration for a half-maximal effect (EC50) lay within 1 to 5 µM.

Take `CC(C)c1c(NC(=O)Nc2ccc(-c3nnc(CCCCCC(=O)N4CCN(c5ccc6c(c5)CN(C5CCC(=O)NC5=O)C6=O)CC4)s3)nc2)cnc2ccnn12` (stereo not shown) [Compound 129, 1-[6-[5-[6-[4-[2-(2,6-dioxo-3-piperidyl)-1-oxo-isoindolin-5-yl]piperazin-1-yl]-6-oxo-hexyl]-1,3,4-thiadiazol-2-yl]-3-pyridyl]-3-(7-isopropylpyrazolo[1,5-a]pyrimidin-6-yl)urea]: the concentration for a half-maximal effect (EC50) was 1 to 5 µM.

As to `Cc1cc(NC(=O)Nc2cnc3ccnn3c2C(C)C)cnc1-c1noc(CCCCC(=O)N2CCN(c3ccc4c(c3)CN(C3CCC(=O)N(COC(=O)C(C)(C)C)C3=O)C4=O)CC2)n1` (stereo not shown) [Compound 130, [3-[5-[4-[5-[3-[5-[(7-isopropylpyrazolo[1,5-a]pyrimidin-6-yl)carbamoylamino]-3-methyl-2-pyridyl]-1,2,4-oxadiazol-5-yl]pentanoyl]piperazin-1-yl]-1-oxo-isoindolin-2-yl]-2,6-dioxo-1-piperidyl]methyl 2,2-dimethylpropanoate], the EC50 was not above 0.2 µM.

Consider `Cc1cc(NC(=O)Nc2cnc3ccnn3c2C(C)C)cnc1-c1noc(CCCCCC(=O)N2CCN(c3ccc4c(c3)CN(C3CCC(=O)N(COC(=O)C(C)(C)C)C3=O)C4=O)CC2)n1` (stereo not shown) [Compound 131, [3-[5-[4-[6-[3-[5-[(7-isopropylpyrazolo[1,5-a]pyrimidin-6-yl)carbamoylamino]-3-methyl-2-pyridyl]-1,2,4-oxadiazol-5-yl]hexanoyl]piperazin-1-yl]-1-oxo-isoindolin-2-yl]-2,6-dioxo-1-piperidyl]methyl 2,2-dimethylpropanoate], for which the EC50 was not above 0.2 µM.

Turning to `Cc1cc(NC(=O)Nc2cnc3ccnn3c2C2CCCCC2)cnc1-c1noc(CCCCCN2CCN(c3ccc4c(c3)CN(C3CCC(=O)NC3=O)C4=O)CC2)n1` (stereo not shown) [Compound 132, 1-(7-cyclohexylpyrazolo[1,5-a]pyrimidin-6-yl)-3-[6-[5-[5-[4-[2-(2,6-dioxo-3-piperidyl)-1-oxo-isoindolin-5-yl]piperazin-1-yl]pentyl]-1,2,4-oxadiazol-3-yl]-5-methyl-3-pyridyl]urea], the EC50 was in the range of 0.2 to 0.5 µM.

For the compound `O=C1CCC(N2Cc3cc(N4CCN(CCCCCCc5nc(-c6ncc(NC(=O)Nc7cnc8ccnn8c7C7CCCC7)cc6C(F)(F)F)no5)CC4)ccc3C2=O)C(=O)N1` (stereo not shown) [Compound 133, 1-(7-cyclopentylpyrazolo[1,5-a]pyrimidin-6-yl)-3-[6-[5-[6-[4-[2-(2,6-dioxo-3-piperidyl)-1-oxo-isoindolin-5-yl]piperazin-1-yl]hexyl]-1,2,4-oxadiazol-3-yl]-5-(trifluoromethyl)-3-pyridyl]urea], the concentration for a half-maximal effect (EC50) was not above 0.2 µM.

With `CC(C)(C)C(=O)OCN1C(=O)CCC(N2Cc3cc(N4CCN(C(=O)CCCCc5nc(-c6ncc(NC(=O)Nc7cnc8ccnn8c7C7CCCC7)cc6Cl)no5)CC4)ccc3C2=O)C1=O` (stereo not shown) [Compound 134, [3-[5-[4-[5-[3-[3-chloro-5-[(7-cyclopentylpyrazolo[1,5-a]pyrimidin-6-yl)carbamoylamino]-2-pyridyl]-1,2,4-oxadiazol-5-yl]pentanoyl]piperazin-1-yl]-1-oxo-isoindolin-2-yl]-2,6-dioxo-1-piperidyl]methyl 2,2-dimethylpropanoate], the concentration for a half-maximal effect (EC50) was not above 0.2 µM.

Take `CC(C)c1c(NC(=O)Nc2cnc(-c3noc(CCCC(=O)N4CCN(c5ccc6c(c5)CN(C5CCC(=O)N(C)C5=O)C6=O)CC4)n3)c(Cl)c2)cnc2ccnn12` (stereo not shown) [Compound 135, 1-[5-chloro-6-[5-[4-[4-[2-(1-methyl-2,6-dioxo-3-piperidyl)-1-oxo-isoindolin-5-yl]piperazin-1-yl]-4-oxo-butyl]-1,2,4-oxadiazol-3-yl]-3-pyridyl]-3-(7-isopropylpyrazolo[1,5-a]pyrimidin-6-yl)urea]: the 50% effective concentration (EC50) is not above 0.2 µM.

`CC(C)c1c(NC(=O)Nc2cnc(-c3noc(CCCCC(=O)N4CCN(c5ccc6c(c5)CN(C5CCC(=O)N(C)C5=O)C6=O)CC4)n3)c(Cl)c2)cnc2ccnn12` (stereo not shown) [Compound 136, 1-[5-chloro-6-[5-[5-[4-[2-(1-methyl-2,6-dioxo-3-piperidyl)-1-oxo-isoindolin-5-yl]piperazin-1-yl]-5-oxo-pentyl]-1,2,4-oxadiazol-3-yl]-3-pyridyl]-3-(7-isopropylpyrazolo[1,5-a]pyrimidin-6-yl)urea]: the EC50 is not above 0.2 µM.

Consider `CC(C)c1c(NC(=O)Nc2cnc(-c3noc(CCCC(=O)N4CCN(c5ccc6c(c5)CN(C5CCC(=O)N(COC(=O)C(C)(C)C)C5=O)C6=O)CC4)n3)c(Cl)c2)cnc2ccnn12` (stereo not shown) [Compound 137, [3-[5-[4-[4-[3-[3-chloro-5-[(7-isopropylpyrazolo[1,5-a]pyrimidin-6-yl)carbamoylamino]-2-pyridyl]-1,2,4-oxadiazol-5-yl]butanoyl]piperazin-1-yl]-1-oxo-isoindolin-2-yl]-2,6-dioxo-1-piperidyl]methyl 2,2-dimethylpropanoate], for which the EC50 was not above 0.2 µM.

For the compound `CC(C)c1c(NC(=O)Nc2cnc(-c3noc(CCCCC(=O)N4CCN(c5ccc6c(c5)CN(C5CCC(=O)N(COC(=O)C(C)(C)C)C5=O)C6=O)CC4)n3)c(Cl)c2)cnc2ccnn12` (stereo not shown) [Compound 138, [3-[5-[4-[5-[3-[3-chloro-5-[(7-isopropylpyrazolo[1,5-a]pyrimidin-6-yl)carbamoylamino]-2-pyridyl]-1,2,4-oxadiazol-5-yl]pentanoyl]piperazin-1-yl]-1-oxo-isoindolin-2-yl]-2,6-dioxo-1-piperidyl]methyl 2,2-dimethylpropanoate], the 50% effective concentration (EC50) is not above 0.2 µM.

Consider `CC(C)c1c(NC(=O)Nc2cnc(-c3noc(CCCCC(=O)N4CCN(c5ccc6c(c5)CN(C5CCC(=O)NC5=O)C6=O)CC4)n3)c(Cl)c2)cnc2ccnn12` (stereo not shown) [Compound 139, 1-[5-chloro-6-[5-[5-[4-[2-(2,6-dioxo-3-piperidyl)-1-oxo-isoindolin-5-yl]piperazin-1-yl]-5-oxo-pentyl]-1,2,4-oxadiazol-3-yl]-3-pyridyl]-3-(7-isopropylpyrazolo[1,5-a]pyrimidin-6-yl)urea], for which the EC50 was not above 0.2 µM.

As for `CC(C)c1c(NC(=O)Nc2cnc(-c3noc(CCCC(=O)N4CCN(c5ccc6c(c5)CN(C5CCC(=O)NC5=O)C6=O)CC4)n3)c(Cl)c2)cnc2ccnn12` (stereo not shown) [Compound 140, 1-[5-chloro-6-[5-[4-[4-[2-(2,6-dioxo-3-piperidyl)-1-oxo-isoindolin-5-yl]piperazin-1-yl]-4-oxo-butyl]-1,2,4-oxadiazol-3-yl]-3-pyridyl]-3-(7-isopropylpyrazolo[1,5-a]pyrimidin-6-yl)urea], the 50% effective concentration (EC50) is not above 0.2 µM.

Turning to `Cc1cc(NC(=O)Nc2cnc3ccnn3c2C2CCCCC2)cnc1-c1noc(CCCCN2CCN(c3ccc4c(c3)CN(C3CCC(=O)NC3=O)C4=O)CC2)n1` (stereo not shown) [Compound 141, 1-(7-cyclohexylpyrazolo[1,5-a]pyrimidin-6-yl)-3-[6-[5-[4-[4-[2-(2,6-dioxo-3-piperidyl)-1-oxo-isoindolin-5-yl]piperazin-1-yl]butyl]-1,2,4-oxadiazol-3-yl]-5-methyl-3-pyridyl]urea], the concentration giving a half-maximal response (EC50) lay in the range of 0.2 to 0.5 µM.
